# Assay results published in US20240118265A1, “MATERIALS AND METHODS TO IMPROVE IN VITRO TOXICITY PREDICTIONS” (priority 2022, published 2024).
# System: not listed separately
# Experiment: Depth of Migration (DM) test
# Format: physicochemical
# Settings: not given
row,Compound,DM Distance Traveled [cm]
1,"CC(C)(C)CC(C)(C)c1ccc(O)cc1 [4-(1,1,3,3-Tetramethylbutyl)phenol]",4.5
2,C=CC(=O)OCCO [Hydroxyethyl acrylate],4.5
3,CCCOCC(C)OCC(C)O (stereo not drawn) [1-(1-methyl-2-propoxyethoxy)propan-2-ol],4.5
4,O=C([O-])c1ccccc1O.[Na+] [Sodium salicylate],4.5
5,C/C=C/C=C/C(=O)[O-].[K+] [Potassium sorbate],4.5

# Same assay, conditions: 1:100 dilution in DM dye solution, 30 μL, 15° platform, after 30-120 seconds; table value
row,Compound,DM Distance Traveled [cm]
1,CC(C)O [Isopropanol],4.5
2,CCN(CC)CCCC(C)Nc1c2ccc(Cl)cc2nc2ccc(OC)cc12 (stereo not drawn) [Quinacrine],4.5
3,"CC(C)(O)CCC(C)(C)O [2,5-Dimethyl-2,5-hexanediol]",4.5
4,"CCOC(=O)CC(=O)c1cc(F)c(Cl)nc1Cl [Ethyl 2,6-dichloro-5-fluoro-beta-oxo-3-pyridine propionate]",4.5
5,"CCCCOc1ccc(OCCCC)cc1 [1,4-dibutoxy benzene]",4.5
6,"CC(=O)O[C@H]1NC(=O)[C@@H]1[C@@H](C)O[Si](C)(C)C(C)(C)C [(2R,3R)-3-((R)-1-(tert-Butyldimethylsiloxy)ethyl)-4-oxoazetidin-2-yl acetate]",4.5
7,C=C1C2CCC(C2)C1(C)C (stereo not drawn) [Camphene],4.5
8,CCCCCCCCCCCCCCO [Myristyl alcohol],4.5
9,COC(C)=O [Methyl acetate],4.5
10,O=Cc1ccc(C(=O)O)cc1 [4-carboxybenzaldehyde],4.5
11,"O=C(Cl)c1c(Cl)cccc1Cl [2,6-Dichlorobenzoyl chloride]",4.5
12,c1ccc2c(c1)CCc1ccccc1N2 [Iminodibenzyl],4.5
13,CCO [Ethanol],4.5
14,COC(=O)CC#N [Methyl cyanoacetate],4.5
15,Cc1c(COC(=O)[C@@H]2[C@H](/C=C(\Cl)C(F)(F)F)C2(C)C)cccc1-c1ccccc1 (racemic) [Bifenthrin],4.5
16,N[C@@H](CC(=O)O)C(=O)O [L-Aspartic acid],4.5

# System: isolated chicken eye
# Experiment: not given
# Settings: without DM test; cited from earlier work
row,Compound,ICE prediction versus in vivo
1,O=Cc1ccc(C(=O)O)cc1 [4-carboxybenzaldehyde],false negatives
2,COC(=O)CC#N [Methyl cyanoacetate],false negatives

# System: eye
# Experiment: not given
# Settings: GHS category; cited from earlier work
row,Compound,in vivo GHS
1,CC(C)O [Isopropanol],Cat. 2
2,"CC(C)(C)CC(C)(C)c1ccc(O)cc1 [4-(1,1,3,3-Tetramethylbutyl)phenol]",Cat. 1
3,"CC(C)(O)CCC(C)(C)O [2,5-Dimethyl-2,5-hexanediol]",Cat. 1
4,"CCCCOc1ccc(OCCCC)cc1 [1,4-dibutoxy benzene]",Cat. 2
5,"CC(=O)O[C@H]1NC(=O)[C@@H]1[C@@H](C)O[Si](C)(C)C(C)(C)C [(2R,3R)-3-((R)-1-(tert-Butyldimethylsiloxy)ethyl)-4-oxoazetidin-2-yl acetate]",Cat. 2
6,COC(C)=O [Methyl acetate],Cat. 2
7,O=Cc1ccc(C(=O)O)cc1 [4-carboxybenzaldehyde],Cat. 2
8,"O=C(Cl)c1c(Cl)cccc1Cl [2,6-Dichlorobenzoyl chloride]",Cat. 2
9,CCO [Ethanol],Cat. 2
10,COC(=O)CC#N [Methyl cyanoacetate],Cat. 2
11,Cc1c(COC(=O)[C@@H]2[C@H](/C=C(\Cl)C(F)(F)F)C2(C)C)cccc1-c1ccccc1 (racemic) [Bifenthrin],Cat. 2

# Same assay, conditions: rabbit, in vivo; cited from earlier work
row,Compound,in vivo GHS
1,CCN(CC)CCCC(C)Nc1c2ccc(Cl)cc2nc2ccc(OC)cc12 (stereo not drawn) [Quinacrine],Cat. 1
2,CCCOCC(C)OCC(C)O (stereo not drawn) [1-(1-methyl-2-propoxyethoxy)propan-2-ol],Cat. 2
3,"CCOC(=O)CC(=O)c1cc(F)c(Cl)nc1Cl [Ethyl 2,6-dichloro-5-fluoro-beta-oxo-3-pyridine propionate]",Cat. 2
4,CCCCCCCCCCCCCCO [Myristyl alcohol],Cat. 2
5,O=C([O-])c1ccccc1O.[Na+] [Sodium salicylate],Cat. 1
6,c1ccc2c(c1)CCc1ccccc1N2 [Iminodibenzyl],Cat. 1
7,C/C=C/C=C/C(=O)[O-].[K+] [Potassium sorbate],Cat. 2

# Same assay, conditions: reference classification; cited from earlier work
row,Compound,known ocular irritancy class of the chemical
1,Triton X-100 (10%),ocular corrosive

# System: RhCE tissues
# Experiment: not given
# Settings: without DM test; cited from earlier work
row,Compound,EpiOcular prediction versus in vivo
1,"CCCCOc1ccc(OCCCC)cc1 [1,4-dibutoxy benzene]",false negatives
2,c1ccc2c(c1)CCc1ccccc1N2 [Iminodibenzyl],false negatives
3,COC(=O)CC#N [Methyl cyanoacetate],false negatives
4,Cc1c(COC(=O)[C@@H]2[C@H](/C=C(\Cl)C(F)(F)F)C2(C)C)cccc1-c1ccccc1 (racemic) [Bifenthrin],false negatives

# System: cultured epithelium
# Experiment: not given
# Settings: cited from earlier work
row,Compound,Short Time Exposure (STE) prediction versus in vivo
1,CCCOCC(C)OCC(C)O (stereo not drawn) [1-(1-methyl-2-propoxyethoxy)propan-2-ol],false negatives
2,CCCCCCCCCCCCCCO [Myristyl alcohol],false negatives
3,O=C([O-])c1ccccc1O.[Na+] [Sodium salicylate],false negatives
4,C/C=C/C=C/C(=O)[O-].[K+] [Potassium sorbate],false negatives

# Same assay, conditions: without DM test; cited from earlier work
row,Compound,Short Time Exposure (STE) prediction versus in vivo
1,CC(C)O [Isopropanol],false negatives
2,"CC(C)(O)CCC(C)(C)O [2,5-Dimethyl-2,5-hexanediol]",false negatives
3,COC(C)=O [Methyl acetate],false negatives
4,"O=C(Cl)c1c(Cl)cccc1Cl [2,6-Dichlorobenzoyl chloride]",false negatives
5,CCO [Ethanol],false negatives
6,COC(=O)CC#N [Methyl cyanoacetate],false negatives

# System: bovine cornea
# Experiment: not given
# Settings: cited from earlier work
row,Compound,BCOP prediction versus in vivo
1,"CCOC(=O)CC(=O)c1cc(F)c(Cl)nc1Cl [Ethyl 2,6-dichloro-5-fluoro-beta-oxo-3-pyridine propionate]",false negatives

# Same assay, conditions: without DM test; cited from earlier work
row,Compound,BCOP prediction versus in vivo
1,"CC(C)(C)CC(C)(C)c1ccc(O)cc1 [4-(1,1,3,3-Tetramethylbutyl)phenol]",false negatives
2,CCN(CC)CCCC(C)Nc1c2ccc(Cl)cc2nc2ccc(OC)cc12 (stereo not drawn) [Quinacrine],false negatives
3,"CC(=O)O[C@H]1NC(=O)[C@@H]1[C@@H](C)O[Si](C)(C)C(C)(C)C [(2R,3R)-3-((R)-1-(tert-Butyldimethylsiloxy)ethyl)-4-oxoazetidin-2-yl acetate]",false negatives
